Biological target: T1, EndoMA1 (MIAR_33230) (Microbacterium arabinogalactanolyticum, UniProt A0AAJ6N6D4)
T1 construct: 53,678 Da monomer, dimer; catalytic domain plus putative CBM
Assay: X-ray crystallography ([…] Å)
Type: binding
Conditions: co-crystallized with A9LT; second site, putative CBM domain; possible crystal packing artifact

T1 sequence (A0AAJ6N6D4 entry or part of it): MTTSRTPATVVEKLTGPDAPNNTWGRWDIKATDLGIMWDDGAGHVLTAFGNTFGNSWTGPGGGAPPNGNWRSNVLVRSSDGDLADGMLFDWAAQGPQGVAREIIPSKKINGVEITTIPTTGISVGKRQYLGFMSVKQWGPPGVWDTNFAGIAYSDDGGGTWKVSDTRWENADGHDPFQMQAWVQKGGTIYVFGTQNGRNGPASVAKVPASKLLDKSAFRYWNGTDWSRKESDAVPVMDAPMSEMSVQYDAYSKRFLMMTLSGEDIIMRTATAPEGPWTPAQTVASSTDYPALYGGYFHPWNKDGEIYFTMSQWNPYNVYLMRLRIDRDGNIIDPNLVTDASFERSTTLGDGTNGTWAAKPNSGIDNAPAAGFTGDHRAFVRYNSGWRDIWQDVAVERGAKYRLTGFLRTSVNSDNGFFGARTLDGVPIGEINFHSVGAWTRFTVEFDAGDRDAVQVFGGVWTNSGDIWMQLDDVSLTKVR

Q: Which “X-ray crystallography (1.80 Å)” value does the source give for OC[C@H]1O[C@H](OC[C@H]2O[C@H](OC[C@H]3O[C@H](OC[C@H]4OC(O)[C@@H](O)[C@@H]4O)[C@@H](O)[C@@H]3O)[C@@H](O)[C@@H]2O)[C@@H](O)[C@@H]1O (stereo partly shown) [A4L] here?
A: The value was “The A4L molecule is bound to the shallow surface of the putative CBM domain”.

— PMC10509167, “Identification and characterization of endo-α-, exo-α-, and exo-β-D-arabinofuranosidases degrading lipoarabinomannan and arabinogalactan of mycobacteria” (Nature Communications, 2023)
